Assay results taken from patent US5567693A, “Method for inhibiting angiogenesis, proliferation of endothelial or tumor cells and tumor growth” (American Cyanamid Company, priority 1994, dated 1996).
“And” between values parts separate entries of the source, which are not always exact repeats. Equal values may be shown once. Where a name gives a salt, the structure may show the parent alone. Read-outs that look alike come from different tables or passages of the source.

Tests used:
angiogenesis = conditions: Brem et al, cited from earlier work; for inhibition of angiogenesis: WO92/12717
Human Tumor cell lines = experiment: Antiproliferative activity in the panel of human tumor cell lines; assay type: cell-based; conditions: Homo sapiens; average over the 6 tumor cell lines
Experimental: (§1) The antiproliferative activity of the compounds of Formula I in an Adult Bovine Aortic Endothelial (ABAE) cell line and in Human Tumor cell lines is evaluated in three similar assays that measure growth inhibition. The assays are identified as follows:
(§2) PROTOCOL 1,2,and 3 are described in greater detail hereinbelow. In general, according to PROTOCOLS 1 and 2, the target ABAE and/or Human Tumor cells are exposed to the compounds of Formula I for 48 hours. PROTOCOL 3 exposes ABAE cells to the compounds for 4 days. A detailed description of the protocols is as follows:
(§3) The antiproliferative activity of the compounds of Formula I of the present invention is evaluated in a panel comprised of human tumor cell lines and an adult bovine aortic endothelial cell line (ABAE). The human tumor cell lines are from
(§4) All cell lines are maintained in log phase in RPMI 1640 media, supplemented with 5% fetal calf serum, penicillin/streptomycin and 2 mM L-glutamine. Cultures are renewed after 20 passages with cells from a fresh stock of batch-frozen early passage cells. Cell lines are routinely checked for mycoplasma contamination (Genprobe). In a laminar flow hood, cells (1-5×10^4) are plated into 96-well microtiter plates in a volume of 0.1 ml/well with a bulk microtiter dispenser (Denley). […] At this concentration, dimethylsulfoxide has no effect on cell growth. Compounds are added using a Tomtec dispenser which simultaneously dispenses from one 96-well plate, containing the drug dilutions, to the plates containing the cells. After two days of continuous drug exposure, 50% cold trichloroacetic acid (TCA) is added to 10% final concentration to fix the cells, and after 60 minutes at 4° C., the TCA is aspirated and the plates are washed 5 times with deionized water using a microtiter plate washer. The number of cells on the plate are quantitated using a protein dye-binding assay (Monks et al., 1991). A 0.4% solution of the dye, sulforhodamine B, in glacial acetic acid is added to the plates, and the plates are washed 5 times with 1% glacial acetic acid using the automatic plate washed. The bound stain is solubilized with 0.1 ml of 10 mM Tris base. The optical densities are read from an automatic spectrophotometric plate reader (Dynatech) directly to a main frame computer (VAX 8600).
(§5) Positive controls, that include standard chemotherapeutic drugs (i.e., Adriamycin, Cisplatin, etc.), are included in every experiment.
(§6) Background optical density measurements (complete media-cells, and complete media+drug-cells) are automatically subtracted from the appropriate control and test wells. Mean values and standard errors are determined from duplicate wells. A measure is also made of the optical density at time when the drugs are added. The number of cells after treatment (P), as % of control, is calculated for every concentration of drug, as follows: [formula] wherein: T is optical density measurement for treated cells after 48 hours;
(§7) C is optical density measurement for untreated cells after 48 hours;
(§8) Co is optical density measurement for cells at the time of drug addition.
(§9) IC50 of growth inhibition is calculated from the sets of P values using the RS-1 data package (BBN Software).
(§10) The antiproliferative activity of the compounds of Formula I is evaluated in a panel comprised of human tumor cell lines and an adult bovine aortic cell line (ABAE) as listed in PROTOCOL 1. This assay is a modification of PROTOCOL 1. The modifications include:
(§11) 1) each concentration for each compound is tested in a single well;
(§12) 2) compounds are tested at 20, 4, 0.8, 0.16 microgram/ml and additionally in some experiments at 100 and 0.32 microgram/ml;
(§13) 3) samples are pipetted into a 96-well plate for each of the cell lines by a Beckman Biomek 1000 SL robot;
(§14) 4) after fixing with TCA each well is washed with 0.35 ml distilled water twice, not five times;
(§15) 5) after staining with sulforhodamine B each well is washed 3 times, not five times; […]

[1] = tested on: Adult Bovine Aortic Endothelial (ABAE) cell line; experiment: Antiproliferative activity in ABAE cell line, PROTOCOL 2; assay type: cell-based; conditions: PROTOCOL 2, 48 hours
Experimental: as §1, §2
Antiproliferative Activity in Human Tumor and Adult Bovine Aortic Endothelial Cell Lines (ABAE)
as §10, §11, §12, §13, §14
(§16) 5) after staining with sulforhodamine B each well is washed 3 times, not five times;
(§17) 6) the growth inhibition (I) as % of control, is calculated using the RS-1 data package (BBN Software), for every concentration of drug, as follows: [formula] wherein: T is optical density measurement for treated cells after 48 hours;
as §7
(§18) 7) IC50 of growth inhibition is determined graphically from dose response curves, as is known in the art.
Table 1 presents the results depicting the antiproliferative activity of the compounds of Formula I against an Adult Bovine Aortic Endothelial cell line (ABAE), as evaluated by PROTOCOL 1 and 2. The results are presented in terms of IC50 and are as follows.

A2780S = experiment: Antiproliferative activity in human tumor cell lines: A2780S (ovarian); assay type: cell-based; conditions: PROTOCOL 1 and PROTOCOL 2, 48 hours
Experimental: (§19) The assays are identified as follows:
as §2, §3
(§20) Cultures are renewed after 20 passages with cells from a fresh stock of batch-frozen early passage cells. Cell lines are routinely checked for mycoplasma contamination (Genprobe). In a laminar flow hood, cells (1-5×10^4) are plated into 96-well microtiter plates in a volume of 0.1 ml/well with a bulk microtiter dispenser (Denley). […] Compounds are added using a Tomtec dispenser which simultaneously dispenses from one 96-well plate, containing the drug dilutions, to the plates containing the cells. After two days of continuous drug exposure, 50% cold trichloroacetic acid (TCA) is added to 10% final concentration to fix the cells, and after 60 minutes at 4° C., the TCA is aspirated and the plates are washed 5 times with deionized water using a microtiter plate washer. […] A 0.4% solution of the dye, sulforhodamine B, in […] is added to the plates, and the plates are washed 5 times with 1% glacial acetic acid using the automatic plate washed. The bound stain is solubilized with 0.1 ml of 10 mM Tris base. The optical densities are read from an automatic spectrophotometric plate reader (Dynatech) directly to a main frame computer (VAX 8600).
as §5, §6, §7, §8, §9, §10, §11, §12, §13, §14, §16, §17, §18

SW620 = experiment: Antiproliferative activity in human tumor cell lines: SW620 (colon); assay type: cell-based; conditions: SW-620, SW620 colon tumor, PROTOCOL 1 and PROTOCOL 2, 48 hours, read-out: IC50
Experimental: as §1, §2, §3, §4, §5, §6, §7, §8, §9, §10, §11, §12, §13, §14, §15

A2780/DDP = experiment: Antiproliferative activity in human tumor cell lines: A2780/DDP (ovarian); assay type: cell-based; conditions: PROTOCOL 1 and PROTOCOL 2, 48 hours
Experimental: as §19, §2, §3, §20, §5, §6, §7, §8, §9, §10, §11, §12, §13, §14, §16, §17, §18

HTB 161 = experiment: Antiproliferative activity in human tumor cell lines: HTB 161 (ovarian); assay type: cell-based; conditions: HTB 161 ovarian tumor, PROTOCOL 1 and PROTOCOL 2, 48 hours
Experimental: as §19, §2, §3, §20, §5, §6, §7, §8, §9, §10, §11, §12, §13, §14, §16, §17, §18

CACO2 = experiment: Antiproliferative activity in human tumor cell lines: CACO2 (colon); assay type: cell-based; conditions: CACO2 colon tumor, PROTOCOL 1 and PROTOCOL 2, 48 hours
Experimental: as §1, §2, §3, §4, §5, §6, §7, §8, §9, §10, §11, §12, §13, §14, §15

MIP = experiment: Antiproliferative activity in human tumor cell lines: MIP (colon); assay type: cell-based; conditions: PROTOCOL 1 and PROTOCOL 2, 48 hours
Experimental: as §1, §2, §3, §4, §5, §6, §7, §8, §9, §10, §11, §12, §13, §14, §15

[2] = tested on: Adult Bovine Aortic Endothelial (ABAE) cell line; experiment: Antiproliferative activity in ABAE cell line, PROTOCOL 3 (4 day assay); assay type: cell-based; conditions: 4 day assay (PROTOCOL 3)
Experimental: as §1, §2
Antiproliferative Activity in Adult Bovine Aortic Endothelial (ABAE) Cell Line
ABAE cells are grown in DMEMmedia (Mediatech, Washington, D.C.) supplemented with 10% calf serum (Hyclone). ABAE cells are plated in 24-well dishes at 8,000 cells/well, followed by the addition of increasing concentrations of 7-(hydrogen or di(C1 -C4)alkylamino)-8-halogen-9-(substituted)-6-demethyl-6-deoxytetracycline. After four days, the cells are detached and counted. […] The growth inhibition (I) as % of control is calculated as follows: [formula] wherein: Nc is the number of cells in untreated wells;
Nt is the number of cells in treated wells;
No is the number of plated cells.
IC50 of growth inhibition is determined from the sets of I values plotted by Kaleidograph software (Abelbeck Software).
In addition FIG. 1, presents the dose response curve for the compound of Example 10 for the above ABAE cell line obtained by using PROTOCOL 3.

tumor growth = conditions: in conjunction with cancer chemotherapy or radiation therapy; Teicher et al; cited from earlier work
[3] = Homo sapiens, Caco-2, read-out: IC50

Molecule | inhibition of angiogenesis (angiogenesis) | IC50 (Human Tumor cell lines) [µg/mL] | IC50 ([1]; Bos taurus, read-out: IC50) [µg/mL] | IC50 (A2780S) [µg/mL] | IC50 (SW620) [µg/mL] | IC50 (A2780/DDP) [µg/mL] | IC50 (HTB 161) [µg/mL] | IC50 (CACO2; [3]) [µg/mL] | IC50 (MIP) [µg/mL] | also measured
CN(C)[C@@H]1C(O)=C(C(N)=O)C(=O)[C@@]2(O)C(O)=C3C(=O)c4c(O)ccc(Cl)c4[C@@](C)(O)[C@H]3C[C@@H]12 [Chlortetracycline] | useful as inhibitors of angiogenesis |  |  |  |  |  |  |  |  | 
CN(C)[C@@H]1C(O)=C(C(N)=O)C(=O)[C@@]2(O)C(O)=C3C(=O)c4c(O)ccc(Cl)c4[C@@H](O)[C@H]3C[C@@H]12 [Demeclocycline] | useful as inhibitors of angiogenesis |  |  |  |  |  |  |  |  | 
CC(C(=O)Nc1c(Cl)cc2c(c1O)C(=O)C1=C(O)[C@]3(O)C(=O)C(C(N)=O)=C(O)[C@@H](N(C)C)C3CC1C2)N1CCCC1 (stereo partly drawn) [Example 13, 7S-(7α,10aα)]-N-[9-(Aminocarbonyl)-3-chloro-7-(dimethylamino)-5,5a,6,6a,7,10,10a,12-octahydro-1,8,10a,11-tetrahydroxy-10,12-dioxo-2-naphthacenyl]-α-methyl-1-pyrrolidineacetamide dihydrochloride] |  | 1.3 | 3 | 1 | 1 | 1 | 1 | 3 |  | 
CC(C(=O)Nc1c(Cl)cc2c(c1O)C(=O)C1=C(O)[C@]3(O)C(=O)C(C(N)=O)=C(O)[C@@H](N(C)C)C3CC1C2)N1CCCCC1 (stereo partly drawn) [Example 14, 7S-(7α, 10aα)]-N-[9-(Aminocarbonyl)-3-chloro-7-(dimethylamino)-5,5a,6,6a,7,10,10a,12-octahydro-1,8,10a,11-tetrahydroxy-10,12-dioxo-2-naphthacenyl]-α-methyl-1-piperidineacetamide dihydrochloride] |  |  | < 0.8 | < 0.16 | < 0.16 | < 0.16 | < 0.16 | 0.7 | < 0.16 | 
CC(C)NCC(=O)Nc1c(Cl)cc2c(c1O)C(=O)C1=C(O)[C@]3(O)C(=O)C(C(N)=O)=C(O)[C@@H](N(C)C)C3CC1C2 (stereo partly drawn) [Example 15, [4S-(4α,12aα)]-8-Chloro-4-(dimethylamino)-1,4,4a,5,5a,6,11,12a,-octahydro-3,10,12,12a-tetrahydroxy-1,11-dioxo-9-[[[(1-methylethyl)amino]acetyl]amino]-2-naphthacenecarboxamide dihydrochloride] |  |  | < 1 |  |  |  |  |  |  | 
CCC(C(=O)Nc1c(Cl)cc2c(c1O)C(=O)C1=C(O)[C@]3(O)C(=O)C(C(N)=O)=C(O)[C@@H](N(C)C)C3CC1C2)N(C)C (stereo partly shown) [Example 18, dihydrochloride] |  | 4.8 | 16 |  | 3 | 3 | 3 | 11 | 4 | 
CCC(C(=O)Nc1c(Cl)cc2c(c1O)C(=O)C1=C(O)[C@]3(O)C(=O)C(C(N)=O)=C(O)[C@@H](N(C)C)C3CC1C2)N1CCCC1 (stereo partly shown) [Example 19, dihydrochloride] |  | 2.3 | 4 | 1 | 3 | 1 | 2 | 4 | 3 | 
CN(C)[C@@H]1C(O)=C(C(=O)NCNCCCC[C@H](N)C(=O)O)C(=O)[C@@]2(O)C(O)=C3C(=O)c4c(O)cccc4[C@@](C)(O)[C@H]3C[C@@H]12 [Lymecycline] | useful as inhibitors of angiogenesis |  |  |  |  |  |  |  |  | 
CN(C)c1ccc(O)c2c1C[C@H]1C[C@H]3[C@H](N(C)C)C(O)=C(C(N)=O)C(=O)[C@@]3(O)C(O)=C1C2=O [Minocycline] | useful as inhibitors of angiogenesis |  |  |  |  |  |  |  |  | inhibition of angiogenesis compared with combination therapy of heparin and cortisone (angiogenesis; Cancer Research 51, 672-675): inhibits angiogenesis to an extent comparable to that of the combination therapy of heparin and cortisone; activity upon incubation with cells [2]: loosing its activity upon incubation with cells; number of metastases (tumor growth): the number of metastases is reduced; tumor growth (tumor growth): tumor growth is decreased
[4S-(4α,12aα)]-8 -Chloro-4-(dimethylamino)-9-[[(2-(dimethylamino) -1-oxopropyl]amino]-1,4,4a,5,5a,6,11,12a-octahydro-3,10,12,12a-tetrahydroxy-1,11-dioxo-9-[[[(1-methylethyl)amino]acetyl]amino]-2-naphthacenecarboxamide dihydrochloride [Example 16] |  |  |  |  |  |  |  |  |  | IC50 [1]: 3 µg/mL; IC50 (CACO2; dihydrochloride): 4.0 µg/mL and 8.0 µg/mL
